Like-named read-outs stand apart in the source and are kept apart here.
How the values were obtained:
Giant Foxtail [1] = assay: Weed control field trial, Fishers, Ind., fine textured soil (Example 8); format: in vivo; conditions: PRE, rate of 1.6 lb ai/a
Experimental: (§1) Several scientific and replicated field research trials were conducted in multiple locations to evaluate weed control and crop tolerance of herbicide compositions containing about 80% by weight of ametryn active ingredient in the form of a water dispersible granule (WDG). The herbicide compositions were applied to the soil surface with or without weeds present at specific intervals i) before planting (preplant), ii) prior to planting and incorporated into the soil (preplant incorporated), and iii) after planting of the corn, but prior to emergence (preemergence).
(§2) Small plot research trials were conducted using a statistical design known as Randomized Complete Block Design (RCBD), which assumes that a population of experimental units can be divided into a number of relatively homogeneous subpopulations or blocks. The treatments are then randomly assigned to experimental units such that each treatment occurs equally often (usually once) in each block—i.e., each block contains all treatments. Blocks usually represent levels of naturally occurring differences or sources of variation that are unrelated to the treatments. In the analysis, the variation among blocks can be partitioned out of the experimental error (MSE), thereby reducing this quantity and increasing the power of the test. See, Clewer, A. G., and D. H. Scarisbrick. 2001. Practical statistics and experimental design for plant and crop science. John Wiley & Sons Ltd., New York. crop science. Treatment size was typically 4 rows of corn on 30-inch row spacing×30 feet long replicated 3 to 4 times. Preplant, preplant incorporated (PPI), or preemergence (PRE) treatments were uniformly applied with a hand-held backpack sprayer pressurized with compressed air or carbon dioxide (CO2) as the propellant to simulate commercial scale application. Treatments were applied using flat fan nozzle or spray nozzles at from 30 to 35 pounds per square inch (psi) delivering from 15 to 20 gallons of finished spray solution per acre.
(§3) Efficacy on weeds and crop tolerance evaluations were conducted at specified intervals for each trial. […] Crop tolerance was evaluated at intervals of 7 to 14, 21 to 28, and 42 to 56 days after corn emergence in these trials. […] The efficacy of ametryn at a rate of 0.8, 1.2, 1.6 and 2.4 lbs ai/a applied 7 to 14 days preplant was evaluated on grass and broadleaf weeds at intervals of 7 to 14, 21 to 28, and 42 to 56 days after corn emergence. […] In an additional trial, efficacy of ametryn at rates of 1.2, 1.6 and 2.4 lb ai/a applied PRE was evaluated on grass and broadleaf weeds at the same intervals as the earlier trials. […]

Redroot Pigweed [2] = assay: as above; format: in vivo; conditions: PRE, rate of 1.6 lb ai/a
Experimental: as §1, §2, §3

Lambsquarters [3] = assay: as above; format: in vivo; conditions: PRE, rate of 1.6 lb ai/a
Experimental: as §1, §2, §3

Velvetleaf [4] = assay: as above; format: in vivo; conditions: PRE, rate of 1.6 lb ai/a
Experimental: as §1, §2, §3

corn [5] = conditions: in vivo
Experimental: as §1
(§4) Small plot research trials were conducted using a statistical design known as Randomized Complete Block Design (RCBD), which assumes that a population of experimental units can be divided into a number of relatively homogeneous subpopulations or blocks. […] In the analysis, the variation among blocks can be partitioned out of the experimental error (MSE), thereby reducing this quantity and increasing the power of the test. […]
(§5) Efficacy on weeds and crop tolerance evaluations were conducted at specified intervals for each trial. […] Crop tolerance was evaluated at intervals of 7 to 14, 21 to 28, and 42 to 56 days after corn emergence in these trials. […] In an additional trial, efficacy of ametryn at rates of 1.2, 1.6 and 2.4 lb ai/a applied PRE was evaluated on grass and broadleaf weeds at the same intervals as the earlier trials. […]

Giant Foxtail [6] = assay: Weed control field trial, Wyoming, Ill., medium textured soil (Example 7); format: in vivo; conditions: PRE; 8 weeks observation after application
Experimental: as §1, §2, §3

Redroot Pigweed [7] = assay: as above; format: in vivo; conditions: PRE; 8 weeks observation after application
Experimental: as §1, §2, §3

Lambsquarters [8] = assay: as above; format: in vivo; conditions: PRE; 8 weeks observation after application
Experimental: as §1, §2, §3

Velvetleaf [9] = assay: as above; format: in vivo; conditions: PRE; 8 weeks observation after application
Experimental: as §1, §2, §3

corn [10] = conditions: in vivo; remark: listed apart in the source
Experimental: as §1, §4, §5

Velvetleaf [11] = assay: Weed control field trial, York, Nebr., medium textured soil (Example 11); format: in vivo; conditions: PRE; 4 weeks after application
Experimental: as §1
Small plot research trials were conducted using a statistical design known as Randomized Complete Block Design (RCBD), which assumes that a population of experimental units can be divided into a number of relatively homogeneous subpopulations or blocks. The treatments are then randomly assigned to experimental units such that each treatment occurs equally often (usually once) in each block—i.e., each block contains all treatments. Blocks usually represent levels of naturally occurring differences or sources of variation that are unrelated to the treatments. In the analysis, the variation among blocks can be partitioned out of the experimental error (MSE), thereby reducing this quantity and increasing the power of the test. See, Clewer, A. G., and D. H. Scarisbrick. 2001. Practical statistics and experimental design for plant and crop science. John Wiley & Sons Ltd., New York. crop science. […]
as §3

corn [12] = conditions: in vivo; remark: listed apart in the source
Experimental: as §1, §4, §5

Giant Foxtail [13] = assay: Weed control field trial, Richland, Iowa, fine textured soil (Example 6); format: in vivo; conditions: PRE; 4 weeks observation after application
Experimental: as §1, §2
(§6) Efficacy on weeds and crop tolerance evaluations were conducted at specified intervals for each trial. Ametryn herbicide (80% WDG) was applied to the soil at the times relative to planting as indicated at rates of 0.8, 1.2, 1.6, and 2.4 pounds of active ingredient per acre (lb ai/a) at various days preplant up to right before planting (0 day preplant), or immediately following planting (PRE), but before crop emergence. Crop tolerance was evaluated at intervals of 7 to 14, 21 to 28, and 42 to 56 days after corn emergence in these trials. Crop injury, if observed, was reported on a 0 to 100% visual rating scale and the type of injury (e.g., stunting) was noted. The efficacy of ametryn at a rate of 0.8, 1.2, 1.6 and 2.4 lbs ai/a applied 7 to 14 days preplant was evaluated on grass and broadleaf weeds at intervals of 7 to 14, 21 to 28, and 42 to 56 days after corn emergence. Efficacy trials were also conducted in no tillage and reduced tillage cropping systems, allowing for evaluations of existing weeds at application (i.e., burndown) and residual control of weeds which germinate following application. In an additional trial, efficacy of ametryn at rates of 1.2, 1.6 and 2.4 lb ai/a applied PRE was evaluated on grass and broadleaf weeds at the same intervals as the earlier trials. Efficacy in the later trials was conducted in both conventional and reduced tillage systems, which allowed for evaluations of residual weed control following application. A local commercial corn hybrid was planted in each trial location.
(§7) A weed control field trial was conducted in Richland, Iowa on a fine textured soil (e.g., silty clay loam). […]

Cocklebur [14] = assay: as above; format: in vivo; conditions: PRE; 4 weeks observation after application
Experimental: as §1, §2, §6, §7

Morningglory [15] = assay: as above; format: in vivo; conditions: PRE; 4 weeks observation after application
Experimental: as §1, §2, §6, §7

Giant Ragweed [16] = assay: as above; format: in vivo; conditions: PRE; 4 weeks observation after application
Experimental: as §1, §2, §6, §7

Waterhemp [17] = assay: as above; format: in vivo; conditions: PRE; 4 weeks observation after application
Experimental: as §1, §2, §6, §7

Velvetleaf [18] = assay: as above; format: in vivo; conditions: PRE; 4 weeks observation after application
Experimental: as §1, §2, §6, §7

Giant Foxtail [19] = assay: Weed control field trial, Laurel, Md., light textured soil (Example 5); format: in vivo; conditions: 1.2, 1.6, 2.4 lb ai/a PRE; 27 and 56 days after corn emergence
Experimental: as §1, §2, §6
(§8) A weed control field trial was conducted in Laurel, Md. on a light textured soil. Ametryn herbicide (80% WDG) was applied preemergence to bare soil in the field to Giant Foxtail, Velvetleaf, Waterhemp, Giant Ragweed, Morningglory, and Cocklebur at rates of 1.2, 1.6 and 2.4 pounds of active ingredient per acre (lb ai/a) immediately following planting (PRE) and prior to corn emergence. The application volume was between 15 and 25 gallons per acre. […]

Cocklebur [20] = assay: as above; format: in vivo; conditions: 1.2, 1.6, 2.4 lb ai/a PRE; 27 and 56 days after corn emergence
Experimental: as §1, §2, §6, §8

Morningglory [21] = assay: as above; format: in vivo; conditions: 1.2, 1.6, 2.4 lb ai/a PRE; 27 and 56 days after corn emergence
Experimental: as §1, §2, §6, §8

Giant Ragweed [22] = assay: as above; format: in vivo; conditions: 1.2, 1.6, 2.4 lb ai/a PRE; 27 and 56 days after corn emergence
Experimental: as §1, §2, §6, §8

Waterhemp [23] = assay: as above; format: in vivo; conditions: 1.2, 1.6, 2.4 lb ai/a PRE; 27 and 56 days after corn emergence
Experimental: as §1, §2, §6, §8

Velvetleaf [24] = assay: as above; format: in vivo; conditions: 1.2, 1.6, 2.4 lb ai/a PRE; 27 and 56 days after corn emergence
Experimental: as §1, §2, §6, §8

corn [25] = conditions: in vivo; remark: listed apart in the source
Experimental: as §1, §4, §5

corn [26] = conditions: in vivo; remark: listed apart in the source
Experimental: as §1, §4, §5

CCNc1nc(NC(C)C)nc(SC)n1 [ametryn, 2-ethylamino-4-isopropylamino-6-methylthio-s-triazine]
Weed control (Giant Foxtail [1]): moderate weed control | Weed control (Redroot Pigweed [2]): good weed control | Weed control (Lambsquarters [3]): good weed control | Weed control (Velvetleaf [4]): moderate weed control | Percent corn injury (safety to corn) (corn [5]): acceptable safety | Weed control (Giant Foxtail [6]): good control | Weed control (Redroot Pigweed [7]): good control | Weed control (Lambsquarters [8]): good control | Weed control (Velvetleaf [9]): good control | Percent corn injury (safety to corn) (corn [10]): excellent safety | Weed control (Velvetleaf [11]): moderate control | Percent corn injury (corn safety) (corn [12]): excellent corn safety | Weed control (Giant Foxtail [13]): moderate to good control | Weed control (Cocklebur [14]): moderate to good control | Weed control (Morningglory [15]): moderate to good control | Weed control (Giant Ragweed [16]): moderate to good control | Weed control (Waterhemp [17]): excellent control | Weed control (Velvetleaf [18]): moderate to good control | Percent weed control (Giant Foxtail [19]): significant improvement of weed control over the untreated treatment | Percent weed control (Cocklebur [20]): significant improvement of weed control over the untreated treatment | Percent weed control (Morningglory [21]): significant improvement of weed control over the untreated treatment | Percent weed control (Giant Ragweed [22]): significant improvement of weed control over the untreated treatment | Percent weed control (Waterhemp [23]): significant improvement of weed control over the untreated treatment | Percent weed control (Velvetleaf [24]): significant improvement of weed control over the untreated treatment | Percent corn injury (safety to corn) (corn [25]): acceptable safety | Percent corn injury (corn safety) (corn [26]): excellent corn safety

Source: patent publication US8921270B2, “Method for pre-emergent weed control using triazine-based herbicide” (Amvac Chemical Corporation, priority 2011, dated 2014)
